Tested on: middle cerebral artery (MCA) occlusion
Details: rat, 2 h MCA occlusion, 24 h reperfusion, 0.03 mg/kg iv bolus at 30 minutes
Description: Six male Sprague Dawley rats (300 g) were anesthetized with haloethane and subjected to middle cerebral artery (MCA) occlusion using a nylon filament for 2 h. Subsequently, the filament was removed and reperfusion of the infarcted tissue occurred for 24 hours before the rat was sacrificed.
Staining of coronal sections (2.0 mm×7-8) with triphenyltetrazolium chloride ([…]) taken throughout the brain were evaluated under blinded conditions using image analysis to determine infarct size.
The infarct was also expressed as a percentage of the contralateral (non-infarcted) hemisphere to provide an indication of how much of the ipsilateral (infarcted) hemisphere was actually damaged by the procedure. Because edema is present in the infarcted hemisphere, it is often impossible to directly ascertain the percentage of the ipsilateral hemisphere that has been damaged.
Rats were given iv bolus injections (1.0 mL/kg) of either vehicle (10% PEG 200/saline; n=3) or N-(2-pyrazine)carbonyl-L-phenylalanine-L-leucine boronic acid (0.03 mg/kg; n=3) at 30 minutes, 2 hours, and 6 hours after the start of the occlusion.

SMILES: CC(C)CC(NC(=O)C(Cc1ccccc1)NC(=O)c1cnccn1)B(O)O [N-(2-pyrazine)carbonyl-L-phenylalanine-L-leucine boronic acid]
- Infarct volume decreased on the ipsilateral hemisphere (2 hours and 6 hours after start of occlusion, vs vehicle): 62%
- Total damage of the hemisphere (infarct as percentage of contralateral hemisphere) (2 hours and 6 hours, vehicle 19%): 2%

From patent US20030069189A1, “Treatment of infarcts” (Millennium Pharmaceuticals, Inc., priority 1997, published 2003)
